One data set has as its system dermal CYP1A. Nature of the data set: in vitro. The following applies: for inhibitory effect on dermal CYP1A activity, in words: at certain concentration (1, 10 or 100 μM); for enhancing effect on dermal CYP1A activity, in words: at certain concentrations (1, 10 or 100 μM). From the text: (§1) Nude mice were sacrificed by decapitation.
(§2) The precipitate containing the microsomes was obtained.

Data set [1] has as its system liver CYP1A.
Description: (§3) Nude mice were sacrificed by decapitation. The skin and liver were immediately removed and kept in ice bath or 4° C. […] Connective tissue, blood, and fat were carefully removed from the tissue. Excess water content was removed from the homogenized tissue by tissue papers before the tissue was weighed.
(§4) The suspension of homogenized tissue in potassium chloride solution was transferred into a Teflon pestle-glass homogenizer for homogenization for six (6) times. Then, potassium chloride solution was added into the homogenized suspension to bring the volume to about four (4) times of the homogenized suspension. The diluted suspension was 5 transferred into a centrifuge tube and centrifuged at 4° C., 9000 xg, for twenty (20) minutes. The supernatant containing microsomes from skin or liver tissue and other soluble substance were removed and the volume of the supernatant was brought up to four (4) times of the weight of the tissue by adding potassium chloride solution. The diluted supernatant was transferred into a centrifuge tube and centrifuged at 4° C., 100,000 xg, for one (1) hour (Beckman L8-80M). The precipitate containing the microsomes was obtained. Potassium chloride solution was added into the precipitate to bring the volume up to four (4) times of the weight of the tissue, and the suspension was centrifuged at 4° C., 100,000 xg for one (1) hour, to obtain the washed microsomes, which were stored at −78° C. in 0.1M KH2PO4-K2HPO4 buffer (pH=7.4).
(§5) The enzymatic activity of CYP1A was determined based on the activity of 7-ethoxyresorufin-O-deethylase (i.e., for CYP1A) and 7-methoxyresorufin-O-demethylase (i.e., CYP1A2). […] Except for the blank group, the reaction was triggered by adding 0.54 μM NADPH. In the test tube (16×100 mm), the reaction was carried out for ten (10) minutes at constant temperature (37° C.) with vibration and without light Methanol 2.5 ml was added into the reaction mixture to stop the reaction. Protein precipitate was removed from the reaction mixture by centrifuging the reaction mixture at 180 xg for ten (10) minutes. The supernatant was tested for florescent intensity with 550 nm as the excitation wavelength and 585 nm the emission wavelength. The florescent intensity was compared with 0.01 μM-0.1 μM standard Rhodamine B solution to obtain the reading of the CYP1A enzyme activity.
The test system of data set [2] is CYP1A. In words: in vitro. Conditions: nude, mouse.
Text: as §1, §2

The subject of data set [3] is CYP1A. Nature of the data set: in vitro. Conditions: nude, mouse, pH 7.8.
Description: as §3, §4, §5
Data set [4] has as its system liver CYP1A. Nature of the data set: Liver microsomal CYP1A enzymatic activity, inhibition or enhancement. Conditions: at certain concentration (1, 10 or 100 μM). Background: Liver microsomes are vesicles of endoplasmic reticulum, rich in cytochrome P450 enzymes.
Description: as §3, §4, §5
Data set [5] concerns CYP1A. The description is as above. The following applies: nude, mouse.
Description: as §3, §4, §5
Where [6] appears, read: pH 7.8, dermal CYP1A activity (% of control group).
Where [7] appears, read: pH 7.8, inhibition of dermal CYP1A activity.
Setting [8] is: liver microsomes, pH 7.8, probe 7-ethoxyresorufin.

“Also recorded” adds a separate entry of the source. Read-outs that look alike come from different tables or passages of the source. Some results are limits rather than exact numbers.

For the molecule `O=c1cc(-c2ccccc2)oc2c1ccc1ccccc12` [Alpha-NF, α-naphthoflavone], the “dose dependence of the inhibitory effect on dermal CYP1A” value with dermal CYP1A is given as “dose-dependent”. For the same molecule, the “inhibition of dermal microsomal CYP1A activity” value in the data set with dermal CYP1A is given as “more than 90%”. Moreover, in the data set with dermal CYP1A (100 µM), the “dermal CYP1A activity (% of control group)” value was 0.83%. The “liver CYP1A activity (% of control group)” value in the data set with liver CYP1A [1] (1 µM) amounted to 32.91%; in the data set with liver CYP1A [1] (10 µM), 11.06%; with liver CYP1A [1] (100 µM) it was 7.77%.

For `O=c1cc(-c2ccc(O)cc2)oc2cc(O)cc(O)c12` [Apigenin], in the data set with CYP1A [2] (setting [6]), the activity at 10 min, 1 µM came to 103%; the activity at 10 min, 10 µM amounted to 97.2%; the activity at 10 min, 100 µM worked out at 76.4%. In the data set with CYP1A [2] (setting [7]), this molecule yielded an inhibition at 10 min, 100 µM of about 24%. Also, in the data set with CYP1A [3], the activity at 10 min, 1 µM is 118% and the activity at 10 min, 100 µM came out at 53.5%.

In the case of `O=c1cc(-c2ccccc2)oc2ccc3ccccc3c12` [Beta-NF, β-naphthoflavone], the “dermal CYP1A activity (% of control group)” value in the data set on dermal CYP1A (1 µM) turned out to be 27.41%; in the data set with dermal CYP1A (10 µM), 24.00%; with dermal CYP1A (100 µM) it was 3.76%. Also, the “liver CYP1A activity (% of control group)” value was determined as 75.00% in the data set on liver CYP1A [1] (1 µM), 22.78% with liver CYP1A [1] (10 µM) and 13.79% in the data set on liver CYP1A [1] (100 µM).

Take `O=c1c(-c2ccc(O)cc2)coc2cc(O[C@@H]3O[C@H](CO)[C@@H](O)[C@H](O)[C@H]3O)ccc12` [Daidzin]: in the data set with dermal CYP1A, the “inhibitory effect on dermal CYP1A activity, in words” value is given as “inhibition effects” and the “enhancing effect on dermal CYP1A activity, in words” value is on record as “enhancing effects”. Besides, in the data set with CYP1A [2] (pH 7.8), the activity at 10 min, 1 µM was found to be 111%; the activity at 10 min, 10 µM turned out to be 84.2%; the activity at 10 min, 100 µM amounted to 70.4%; the inhibition at 10 min, 100 µM is about 30%. The “enhancing effect on liver CYP1A activity, in words” value in the data set on liver CYP1A [4] is reported as “enhancing effect”. Besides, in the data set with CYP1A [5] (setting [8]), the activity at 10 min, 1 µM was determined as 110%; the activity at 10 min, 10 µM stood at 112%; the activity at 10 min, 100 µM is 111%.

On to `O=c1c(-c2ccc(O)cc2)coc2cc(O)cc(O)c12` [Genistein], for which the “inhibitory effect on dermal CYP1A activity, in words” value in the data set with dermal CYP1A is “inhibition effects”. Also, in the data set with CYP1A [2] (pH 7.8), the activity at 10 min, 1 µM was determined as 77.4%; the activity at 10 min, 10 µM came out at 60.2%; the activity at 10 min, 100 µM stood at 35.4%; the inhibition at 10 min, 100 µM was about 65%. In the data set on liver CYP1A [4], the “enhancing effect on liver CYP1A activity, in words” value is “enhancing effect”. Besides, in the data set with CYP1A [5] (setting [8]), the activity at 10 min, 1 µM is 109%; the activity at 10 min, 10 µM amounted to 108%; the activity at 10 min, 100 µM came out at 109%.

Take `O=c1c(O[C@@H]2O[C@H](CO)[C@@H](O)[C@H](O)[C@H]2O)c(-c2ccc(O)c(O)c2)oc2cc(O)cc(O)c12` [Isoquercitrin]: in the data set on dermal CYP1A, the “inhibitory effect on dermal CYP1A activity, in words” value is recorded as “inhibition effects” and the “enhancing effect on dermal CYP1A activity, in words” value was “enhancing effects”. Moreover, in the data set on CYP1A [2] (setting [6]), the activity at 10 min, 1 µM was 112%; the activity at 10 min, 10 µM amounted to 67%; the activity at 10 min, 100 µM was 44.2%. The molecule also yielded an inhibition at 10 min, 100 µM in the data set on CYP1A [2] (setting [7]) of about 56%. For the same molecule, in the data set with liver CYP1A [4], the “enhancing effect on liver CYP1A activity, in words” value is “enhancing effect” and the “inhibitory effect on liver CYP1A activity, in words” value is recorded as “inhibitory effects”. In the data set on CYP1A [5] (setting [8]), the activity at 10 min, 1 µM was determined as 99%; the activity at 10 min, 10 µM turned out to be 104%; the activity at 10 min, 100 µM is 95.7%.

As to `O=c1c(O)c(-c2ccc(O)cc2)oc2cc(O)cc(O)c12` [Kaempferol], the “dose dependence of the inhibitory effect on dermal CYP1A” value with dermal CYP1A is reported as “dose-dependent effect”. Besides, the “dermal CYP1A activity (% of control group)” value in the data set on dermal CYP1A (nude, mouse, 10 min, 1 µM, pH 7.8) turned out to be 33.73%. In the data set with dermal CYP1A (nude, mouse, 10 min, 10 µM, pH 7.8), the “dermal CYP1A activity (% of control group)” value was found to be 22.35%. Besides, in the data set on CYP1A [2] (setting [6]), the activity at 10 min, 1 µM is about 34%; the activity at 10 min, 10 µM was about 22%; the activity at 10 min, 100 µM was found to be 0%. Besides, the inhibition at 10 min, 100 µM with CYP1A [2] (setting [7]) is over 90%. For the same molecule, the “inhibitory effect on liver CYP1A activity, in words” value with liver CYP1A [4] is listed as “inhibitory effects; also recorded: most inhibitory effect; also recorded: most effective inhibitors”. Moreover, in the data set with CYP1A [5] (setting [8]), the activity at 10 min, 1 µM was 100%; the activity at 10 min, 10 µM was found to be 68.9%; the activity at 10 min, 100 µM was 18.1%; the inhibition at 10 min, 100 µM is about 82%.

`CC1(C)CC[C@]2(C(=O)O)CC[C@]3(C)C(=CC[C@@H]4[C@@]5(C)CC[C@H](O)C(C)(C)[C@@H]5CC[C@]43C)[C@@H]2C1` [Oleanolic acid]: the “inhibitory effect on dermal CYP1A activity, in words” value in the data set with dermal CYP1A is “inhibition effects”. Further, the activity at 10 min, 1 µM with CYP1A [2] (skin (dermal) microsomes, pH 7.8, probe 7-ethoxyresorufin, dermal CYP1A activity (% of control group), compound 1 μM, skin microsomes, mean of at least 3 repeats) worked out at 24%; in the data set on CYP1A [5] (setting [8]), 94%. Besides, the activity at 10 min, 10 µM with CYP1A [2] (skin (dermal) microsomes, pH 7.8, probe 7-ethoxyresorufin, dermal CYP1A activity (% of control group), compound 10 μM, skin microsomes, mean of at least 3 repeats) was 25.7%; in the data set on CYP1A [5] (setting [8]), 99.9%. Moreover, the activity at 10 min, 100 µM was found to be 46.7% with CYP1A [2] (skin (dermal) microsomes, pH 7.8, probe 7-ethoxyresorufin, dermal CYP1A activity (% of control group), compound 100 μM, skin microsomes, mean of at least 3 repeats) and 87.3% in the data set with CYP1A [5] (setting [8]). Also, the inhibition at 10 min, 1 µM with CYP1A [2] (skin (dermal) microsomes, pH 7.8, probe 7-ethoxyresorufin, inhibition of dermal CYP1A activity, compound 1 μM) was about 76%. The “inhibitory effect on liver CYP1A activity, in words” value in the data set on liver CYP1A [4] is on record as “inhibitory effects”.

On to `C[C@@H]1O[C@@H](Oc2c(-c3ccc(O)c(O)c3)oc3cc(O)cc(O)c3c2=O)[C@H](O)[C@H](O)[C@H]1O` [Quercitrin], for which, in the data set with dermal CYP1A, the “inhibitory effect on dermal CYP1A activity, in words” value is reported as “inhibition effects”. In the data set on CYP1A [2] (pH 7.8), the activity at 10 min, 1 µM stood at 87.8%; the activity at 10 min, 10 µM worked out at 77.1%; the activity at 10 min, 100 µM was determined as 75%; the inhibition at 10 min, 100 µM is about 25%. Further, in the data set on liver CYP1A [4], the “enhancing effect on liver CYP1A activity, in words” value was “enhancing effect” and the “inhibitory effect on liver CYP1A activity, in words” value is recorded as “inhibitory effects”. Moreover, in the data set with CYP1A [5] (setting [8]), the activity at 10 min, 10 µM was found to be 104% and the activity at 10 min, 100 µM was 89.2%. Moreover, the activity at 10 min, 1 µM in the data set on CYP1A [5] (pH 7.8) amounted to 109%.

With `C[C@@H]1O[C@@H](OC[C@H]2O[C@@H](Oc3c(-c4ccc(O)c(O)c4)oc4cc(O)cc(O)c4c3=O)[C@H](O)[C@@H](O)[C@@H]2O)[C@H](O)[C@H](O)[C@H]1O` [Rutin], in the data set on dermal CYP1A, the “inhibitory effect on dermal CYP1A activity, in words” value is “inhibition effects” and the “enhancing effect on dermal CYP1A activity, in words” value was “enhancing effects”. Further, in the data set on CYP1A [2] (setting [6]), the activity at 10 min, 1 µM turned out to be 94.1%; the activity at 10 min, 10 µM is 98.4%; the activity at 10 min, 100 µM was 59.2%. Moreover, the inhibition at 10 min, 100 µM in the data set on CYP1A [2] (setting [7]) is about 41%. Further, in the data set on liver CYP1A [4], the “enhancing effect on liver CYP1A activity, in words” value is “enhancing effect” and the “inhibitory effect on liver CYP1A activity, in words” value was “inhibitory effects”. In addition, in the data set on CYP1A [5] (setting [8]), the activity at 10 min, 1 µM is 117%; the activity at 10 min, 10 µM is 124%; the activity at 10 min, 100 µM came out at 90.7%.

Consider `O=C(O)/C=C/c1ccccc1` [Trans-cinnamic acid], for which, in the data set with CYP1A [2] (setting [6]), the activity at 10 min, 1 µM came out at 117%; the activity at 10 min, 10 µM came out at 110%; the activity at 10 min, 100 µM came out at 86.6%. The inhibition at 10 min, 100 µM in the data set on CYP1A [2] (setting [7]) is about 13%. Besides, in the data set with CYP1A [3], the activity at 10 min, 1 µM was found to be 109%; the activity at 10 min, 10 µM is 103%; the activity at 10 min, 100 µM worked out at 101%.

In general, inhibition refers to the percentage by which the read-out fell short of the control.
